# Experimental data: ChEMBL document CHEMBL4400566, “Discovery of new ureido benzenesulfonamides incorporating 1,3,5-triazine moieties as carbonic anhydrase I, II, IX and XII inhibitors” (Bioorg Med Chem, 2019)
# Target: Carbonic anhydrase 9 (Homo sapiens, UniProt Q16790)
# Description: Inhibition of recombinant human carbonic anhydrase 9 incubated for 15 mins prior to testing measured for 5 to 10 secs by phenol red-based stopped-flow CO2 hydration assay
row,Structure (SMILES),Ki [nM]
1,NS(=O)(=O)c1ccc(NC(=O)Nc2nc(Cl)nc(Nc3ccccc3)n2)cc1,14.1
2,CN(C)c1nc(NC(=O)Nc2ccc(S(N)(=O)=O)cc2)nc(Nc2ccc(Cl)cc2)n1,38.1
3,NS(=O)(=O)c1ccc(NC(=O)Nc2nc(Cl)nc(Nc3ccc(F)cc3)n2)cc1,46.8
4,CN(C)c1nc(NC(=O)Nc2ccc(S(N)(=O)=O)cc2)nc(Nc2ccc(F)cc2)n1,66.9
5,NS(=O)(=O)c1ccc(NC(=O)Nc2nc(Cl)nc(Nc3ccc(Cl)c(Cl)c3)n2)cc1,35.6
6,CN(C)c1nc(NC(=O)Nc2ccc(S(N)(=O)=O)cc2)nc(Nc2ccccc2)n1,19
7,NS(=O)(=O)c1ccc(NC(=O)Nc2nc(Cl)nc(Nc3ccc(Cl)cc3)n2)cc1,44
8,CN(C)c1nc(NC(=O)Nc2ccc(S(N)(=O)=O)cc2)nc(Nc2ccc(Cl)c(Cl)c2)n1,23.5

# The next lines start with the values.
row,Ki [nM],Structure (SMILES)
1,151,NS(=O)(=O)c1ccc(NC(=O)Nc2nc(Nc3ccc(F)cc3)nc(N3CCCCC3)n2)cc1
2,185,NS(=O)(=O)c1ccc(NC(=O)Nc2nc(Nc3ccc(F)cc3)nc(N3CCOCC3)n2)cc1
3,11.8,NS(=O)(=O)c1ccc(NC(=O)Nc2nc(Cl)nc(Nc3ccc(S(N)(=O)=O)cc3)n2)cc1
4,36.9,NS(=O)(=O)c1ccc(NC(=O)Nc2nc(Nc3ccccc3)nc(N3CCOCC3)n2)cc1
5,105,NS(=O)(=O)c1ccc(NC(=O)Nc2nc(Nc3ccc(Cl)c(Cl)c3)nc(N3CCOCC3)n2)cc1
6,87.9,NS(=O)(=O)c1ccc(NC(=O)Nc2nc(Nc3ccc(Cl)c(Cl)c3)nc(N3CCCCC3)n2)cc1
7,43.3,NS(=O)(=O)c1ccc(NC(=O)Nc2nc(Nc3ccc(Cl)cc3)nc(N3CCCCC3)n2)cc1
8,28.6,NS(=O)(=O)c1ccc(NC(=O)Nc2nc(Nc3ccc(Cl)cc3)nc(N3CCOCC3)n2)cc1
9,28.4,NS(=O)(=O)c1ccc(NC(=O)Nc2nc(Nc3ccc(S(N)(=O)=O)cc3)nc(N3CCCCC3)n2)cc1
10,24.9,NS(=O)(=O)c1ccc(NC(=O)Nc2nc(Nc3ccc(S(N)(=O)=O)cc3)nc(N3CCOCC3)n2)cc1
11,32.3,NS(=O)(=O)c1ccc(NC(=O)Nc2nc(Nc3ccccc3)nc(N3CCCCC3)n2)cc1
12,14.6,CN(C)c1nc(NC(=O)Nc2ccc(S(N)(=O)=O)cc2)nc(Nc2ccc(S(N)(=O)=O)cc2)n1
